Target: ATP-binding cassette sub-family C member 2 (Homo sapiens, UniProt Q92887)
Experiment: TP_TRANSPORTER: Immunoblot analysis in Caco-2 cells
Type: functional, cell-based

Chain of ATP-binding cassette sub-family C member 2 (Q92887 whole entry): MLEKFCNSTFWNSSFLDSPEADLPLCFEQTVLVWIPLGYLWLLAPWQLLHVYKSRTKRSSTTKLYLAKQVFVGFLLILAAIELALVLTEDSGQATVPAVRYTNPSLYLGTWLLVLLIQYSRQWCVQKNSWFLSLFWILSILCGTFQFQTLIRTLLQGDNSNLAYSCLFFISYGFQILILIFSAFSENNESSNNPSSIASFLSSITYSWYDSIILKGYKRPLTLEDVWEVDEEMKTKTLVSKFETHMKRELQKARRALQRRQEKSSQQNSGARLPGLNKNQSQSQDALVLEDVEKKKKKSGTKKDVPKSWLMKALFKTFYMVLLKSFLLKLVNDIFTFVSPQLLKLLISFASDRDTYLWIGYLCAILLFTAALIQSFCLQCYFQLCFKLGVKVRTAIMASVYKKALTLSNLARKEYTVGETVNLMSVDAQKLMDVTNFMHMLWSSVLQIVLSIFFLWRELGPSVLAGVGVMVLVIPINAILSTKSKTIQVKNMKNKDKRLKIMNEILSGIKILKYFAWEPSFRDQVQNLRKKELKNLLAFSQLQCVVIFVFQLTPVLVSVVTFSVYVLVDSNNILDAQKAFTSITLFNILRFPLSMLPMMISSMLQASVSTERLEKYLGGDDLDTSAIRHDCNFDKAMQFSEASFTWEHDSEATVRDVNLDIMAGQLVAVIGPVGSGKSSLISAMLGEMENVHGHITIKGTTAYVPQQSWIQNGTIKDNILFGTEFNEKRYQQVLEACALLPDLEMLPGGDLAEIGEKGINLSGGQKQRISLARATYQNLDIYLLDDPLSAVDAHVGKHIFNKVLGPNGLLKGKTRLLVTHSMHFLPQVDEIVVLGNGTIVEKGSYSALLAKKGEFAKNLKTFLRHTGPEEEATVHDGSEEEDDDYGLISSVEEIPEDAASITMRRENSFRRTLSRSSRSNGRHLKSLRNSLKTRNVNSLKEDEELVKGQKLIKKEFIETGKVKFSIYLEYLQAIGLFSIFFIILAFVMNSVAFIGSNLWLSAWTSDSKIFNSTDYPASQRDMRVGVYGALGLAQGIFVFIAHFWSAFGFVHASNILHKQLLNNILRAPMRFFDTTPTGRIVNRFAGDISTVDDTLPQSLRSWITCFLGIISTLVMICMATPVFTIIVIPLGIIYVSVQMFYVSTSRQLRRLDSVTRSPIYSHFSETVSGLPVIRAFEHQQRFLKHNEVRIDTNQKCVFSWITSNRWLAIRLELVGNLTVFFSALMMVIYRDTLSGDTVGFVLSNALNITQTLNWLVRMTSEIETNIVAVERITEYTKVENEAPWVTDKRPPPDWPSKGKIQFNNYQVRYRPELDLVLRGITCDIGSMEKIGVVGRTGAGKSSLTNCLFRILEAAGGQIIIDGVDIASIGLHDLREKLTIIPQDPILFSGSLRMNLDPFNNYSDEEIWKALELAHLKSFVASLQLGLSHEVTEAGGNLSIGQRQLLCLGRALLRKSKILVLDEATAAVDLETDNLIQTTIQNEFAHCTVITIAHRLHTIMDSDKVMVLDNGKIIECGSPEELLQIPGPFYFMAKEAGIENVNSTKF

For `O=c1c(O)c(-c2ccc(O)c(O)c2)oc2cc(O)cc(O)c12` [QUERCETIN], the Activity was “inducer [+]”.

Source: ChEMBL document CHEMBL2074459, “Coordinate induction by antioxidants of UDP-glucuronosyltransferase UGT1A6 and the apical conjugate export pump MRP2 (multidrug resistance protein 2) in Caco-2 cells” (Biochem Pharmacol, 2000)
